In ChEMBL document CHEMBL1201862, “PubChem BioAssay data set” (2004):
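Tested at 5 concentrations; 48 h exposure; 96-well plates; endpoints linearly interpolated, else capped at highest concentration. GI50 is the concentration that inhibits growth by half.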 Calls of active or inactive are those of the source. Rule as the data show it: active = GI50 up to about 1.1 µM and inactive = higher.

Columns and labels:
Experiment in all cases: DTP human tumour cell line panel, 48 h
DLD-1 = tested on: DLD-1
DMS-114 = tested on: DMS-114
DMS-273 = tested on: DMS-273
HOP-18 = tested on: HOP-18
KM-20L2 = tested on: KM-20L2
LXFL 529 = tested on: LXFL 529
RXF 631 = tested on: RXF 631
SNB-78 = tested on: SNB-78
XF498 = tested on: XF498

SMILES | GI50 (DLD-1) | GI50 (DMS-114) | GI50 (DMS-273) | GI50 (HOP-18) | GI50 (KM-20L2) | GI50 (LXFL 529) | GI50 (RXF 631) | GI50 (SNB-78) | GI50 (XF498)
Cc1ccc(S(=O)(=O)OC2CS[S+]([O-])CC2OS(=O)(=O)c2ccc(C)cc2)cc1 (stereo not drawn) | 9.27 µM (inactive) | 17.9 µM (inactive) | 18.9 µM (inactive) | 22.6 µM (inactive) | 17.7 µM (inactive) | 14.5 µM (inactive) | 16.6 µM (inactive) | 17 µM (inactive) | 13.6 µM (inactive)
C/C(CC(=O)Nc1ccccc1)=N\NC(N)=S | > 100 µM (inactive) | > 100 µM (inactive) | > 100 µM (inactive) |  | > 100 µM (inactive) | > 100 µM (inactive) |  | > 100 µM (inactive) | > 100 µM (inactive)
Fc1ccc(C2SCc3nc4ccccc4n32)cc1Cl (stereo not drawn) | 23 µM (inactive) | 19.9 µM (inactive) | > 10 µM (inactive) |  | 29.9 µM (inactive) | 18.6 µM (inactive) | 32.9 µM (inactive) | 48.8 µM (inactive) | 14 µM (inactive)
CS(=O)(=O)CS(=O)(=O)OCCCl | 333 µM (inactive) | 86.7 µM (inactive) | 236 µM (inactive) | 438 µM (inactive) | 565 µM (inactive) |  |  | 96.8 µM (inactive) | 
N#CC(C(=O)C(=O)C(C#N)c1ccc(Br)cc1)c1ccc(Br)cc1 (stereo not drawn) | 14.3 µM (inactive) | 12.1 µM (inactive) | 12.1 µM (inactive) | 11.4 µM (inactive) | 12.2 µM (inactive) |  |  | 12.2 µM (inactive) | 
COC1CC(n2cc(F)c(N)nc2=O)OC1CO (stereo not drawn) | > 100 µM (inactive) | > 100 µM (inactive) | > 100 µM (inactive) | 49.4 µM (inactive) | > 100 µM (inactive) | > 100 µM (inactive) | > 100 µM (inactive) | > 100 µM (inactive) | > 100 µM (inactive)
C=C(C(=C)P(=S)(C(C)C)C(C)C)P(=S)(C(C)C)C(C)C | > 100 µM (inactive) | > 100 µM (inactive) | > 100 µM (inactive) |  | > 100 µM (inactive) | > 100 µM (inactive) | > 100 µM (inactive) | > 100 µM (inactive) | > 100 µM (inactive)
Nc1nc2c(c(=O)[n-]1)[n+](CCO)cn2C1OC(CO)C(O)C1O (stereo not drawn) | > 100 µM (inactive) | > 100 µM (inactive) | > 100 µM (inactive) | > 100 µM (inactive) | > 100 µM (inactive) | > 100 µM (inactive) | > 100 µM (inactive) | > 100 µM (inactive) | > 100 µM (inactive)
COc1cc2c(cc1OC)C1Cc3cc(OC)c(OC)cc3N1CC2 (stereo not drawn) | 39.8 µM (inactive) | 15.1 µM (inactive) |  |  | 38.6 µM (inactive) | 19.3 µM (inactive) |  | 39.8 µM (inactive) | 18.5 µM (inactive)
Brc1ccccc1/C=N\C12CC3CC(CC(C3)C1)C2 | 1.41 µM (inactive) | 5.77 µM (inactive) | 11.3 µM (inactive) | > 100 µM (inactive) | > 100 µM (inactive) | 10.3 µM (inactive) | > 79.4 µM (inactive) | > 91.4 µM (inactive) | > 100 µM (inactive)
CSC(C1c2ccccc2N(c2ccc(C)cc2)C2=NC(=O)N(C)C(=O)C21Cl)S(=O)(=O)c1ccc(C)cc1 (stereo not drawn) | 16.3 µM (inactive) | 19 µM (inactive) | 20 µM (inactive) |  | 21.7 µM (inactive) | 17.5 µM (inactive) |  | 27.9 µM (inactive) | 30.8 µM (inactive)
N/N=C(\CCN1CCCC1)CC(c1ccccc1)c1c(O)c2ccccc2oc1=O (stereo not drawn) | > 100 µM (inactive) | > 100 µM (inactive) | > 100 µM (inactive) | > 100 µM (inactive) | > 100 µM (inactive) | > 100 µM (inactive) |  | > 100 µM (inactive) | 
O=C(/C=C/c1ccc(Cl)cc1)c1ccncc1 | 41 µM (inactive) | 48.1 µM (inactive) | 69.3 µM (inactive) | > 100 µM (inactive) | 35.9 µM (inactive) | 60.5 µM (inactive) | 31.8 µM (inactive) | > 100 µM (inactive) | 
O=C(CC1(O)C(=O)Nc2c(Cl)ccc(Cl)c21)c1ccc(Cl)cc1 (stereo not drawn) | 38 µM (inactive) | 24.1 µM (inactive) | 27 µM (inactive) | 44.2 µM (inactive) | 38.1 µM (inactive) | 25.2 µM (inactive) | 23.8 µM (inactive) | 49.1 µM (inactive) | 19.1 µM (inactive)
O=C(O)c1c2c(cc3c(=O)c4ccccc4[nH]c13)CCCC2 |  |  | 83 µM (inactive) | > 100 µM (inactive) | > 100 µM (inactive) | > 100 µM (inactive) | > 100 µM (inactive) | > 100 µM (inactive) | > 100 µM (inactive)
O=C(N/C(=C\c1ccc(/C=C(\NC(=O)c2ccccc2)c2nc3ccccc3[nH]2)cc1)c1nc2ccccc2[nH]1)c1ccccc1 | > 100 µM (inactive) | > 100 µM (inactive) | 52.8 µM (inactive) | > 100 µM (inactive) | > 100 µM (inactive) | > 100 µM (inactive) |  | > 100 µM (inactive) | > 100 µM (inactive)
NC(=O)c1csc(C2C=CC(CO)O2)n1 (stereo not drawn) |  | > 100 µM (inactive) | > 100 µM (inactive) | > 100 µM (inactive) | > 100 µM (inactive) | > 100 µM (inactive) | > 100 µM (inactive) | > 100 µM (inactive) | > 100 µM (inactive)
CC(C)c1ccccc1NC(=O)CCc1n[nH]c(=S)o1 | > 54.5 µM (inactive) | > 67 µM (inactive) | > 54.3 µM (inactive) | > 100 µM (inactive) | > 100 µM (inactive) | > 79.8 µM (inactive) | > 100 µM (inactive) | > 100 µM (inactive) | > 100 µM (inactive)
COC(=O)C1=C(O)c2cc(-c3ccccc3)c(-c3ccccc3)c(C#N)c2NC(=O)C1 | 6.3 µM (inactive) | 29.6 µM (inactive) | 2.13 µM (inactive) | < 0.01 µM (active) | 13.1 µM (inactive) | 1.3 µM (inactive) | 3.56 µM (inactive) | 14 µM (inactive) | 49 µM (inactive)
O=S(=O)(N/N=C/c1ccc(Cl)cc1Cl)c1ccccc1 | > 100 µM (inactive) | 29.4 µM (inactive) | 66.7 µM (inactive) | 57.5 µM (inactive) | 85.1 µM (inactive) | 74.3 µM (inactive) | 61.1 µM (inactive) | > 100 µM (inactive) | 78.7 µM (inactive)
